# Test results: patent US20240383908A1, “SYNTHESIS AND APPLICATION OF PHOSPHATASE DEGRADER” (HINOVA PHARMACEUTICALS INC., priority 2021, published 2024)
# What was measured:
# SHP2 protein [1] = molecular target: T1, SHP2 protein (Homo sapiens, UniProt Q06124); test: Degradation activity on SHP2 protein in MV-411 cells (Western blot, DC50); format: cell-based; design: endogenous in cells; details: MV411 cells, 24 hours, read-out: Degradation activity for differenct cell lines MV411 (DC50)
# T1 sequence (Q06124 1-593): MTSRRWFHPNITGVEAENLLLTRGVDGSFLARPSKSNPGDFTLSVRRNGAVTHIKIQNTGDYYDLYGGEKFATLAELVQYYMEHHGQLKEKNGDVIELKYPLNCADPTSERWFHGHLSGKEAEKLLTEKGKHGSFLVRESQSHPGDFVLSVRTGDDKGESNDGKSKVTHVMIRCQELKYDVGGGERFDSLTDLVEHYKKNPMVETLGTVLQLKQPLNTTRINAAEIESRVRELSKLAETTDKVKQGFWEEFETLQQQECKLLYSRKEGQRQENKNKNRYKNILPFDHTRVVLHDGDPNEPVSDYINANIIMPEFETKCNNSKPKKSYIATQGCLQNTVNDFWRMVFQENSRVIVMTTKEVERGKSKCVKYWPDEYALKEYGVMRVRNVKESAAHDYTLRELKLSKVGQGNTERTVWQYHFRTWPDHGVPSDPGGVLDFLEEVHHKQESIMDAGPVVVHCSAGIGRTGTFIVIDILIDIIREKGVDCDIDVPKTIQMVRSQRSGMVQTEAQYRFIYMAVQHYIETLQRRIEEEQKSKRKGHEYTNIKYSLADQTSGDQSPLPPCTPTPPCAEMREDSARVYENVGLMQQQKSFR
# Outline: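 Western blot of SHP2 (GAPDH loading control, 30 μg protein/lane) in lysates of MV-411 cells exposed 24 h to final compound concentrations of 100, 10, 3, 1, 0.3 and 0.1 nM (0.1% DMSO). Degradation relative to DMSO set at 100%; DC50 derived by curve fitting.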
# SHP2 protein [2] = molecular target: T1, SHP2 protein; test: Degradation activity on SHP2 protein in MIA Paca-2 cells (Western blot, DC50); format: cell-based; design: endogenous in cells; host or cells: MIA Paca-2 cells; details: read-out: Degradation activity for differenct cell lines MIA Paca-2 (DC50)
# Outline: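 DC50 is the concentration degrading 50% of SHP2 relative to DMSO control. It was derived by fitting Western blot band densitometry (anti-SHP2, GAPDH reference) from cells exposed 24 h to 0.1–100 nM compound in 0.1% DMSO.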
SMILES,DC50 (SHP2 protein [1]) [nM],DC50 (SHP2 protein [2]) [nM]
CC1(N)CCN(c2cnc(Sc3cccc(NC(=O)CCCCCCN4CC5(CCN(c6cnc(C(=O)NCc7ccc8c(c7)CN(C7CCC(=O)NC7=O)C8=O)cn6)C5)C4)c3)cn2)CC1 (stereo not drawn) [Compound 179],< 100,> 1000
CC1(N)CCN(c2cnc(Sc3cccc(NC(=O)CCCCCCN4CC5(CCN(c6ccc(C(=O)NCc7ccc8c(c7)CN(C7CCC(=O)NC7=O)C8=O)cn6)C5)C4)c3)cn2)CC1 (stereo not drawn) [Compound 155],< 100,< 100
Cc1ncsc1-c1ccc([C@H](C)NC(=O)[C@@H]2C[C@@H](O)CN2C(=O)[C@@H](NC(=O)c2cnc(N3CCC4(CN(CCCCCCC(=O)Nc5cccc(Sc6cnc(N7CCC(C)(N)CC7)cn6)c5)C4)C3)nc2)C(C)(C)C)cc1 [Compound 90],< 100,< 100
CC1(N)CCN(c2cnc(Sc3cccc(NC(=O)CCCCCCN4CC5(CCN(c6ncc(C(=O)NCc7ccc8c(c7)CN(C7CCC(=O)NC7=O)C8=O)cn6)C5)C4)c3)cn2)CC1 (stereo not drawn) [Compound 91],< 100,100 to 1000
CC1(N)CCN(c2cnc(Sc3cccc(NC(=O)CCCCCC=C4CC5(CCN(c6ccc(C(=O)NCc7ccc8c(c7)CN(C7CCC(=O)NC7=O)C8=O)nn6)CC5)C4)c3)cn2)CC1 (stereo not drawn) [Compound 209],< 100,> 1000
CC1(N)CCN(c2cnc(Sc3cccc(NC(=O)CCCCCCCOC4CCN(c5ccc(C(=O)NCc6ccc7c(c6)CN(C6CCC(=O)NC6=O)C7=O)nn5)CC4F)c3)cn2)CC1 (stereo not drawn) [Compound 146],< 100,< 100
COc1nc(N2CCC3(CN(CCCCCCC(=O)Nc4cccc(Sc5cnc(N6CCC(C)(N)CC6)cn5)c4)C3)C2)ccc1C(=O)NCc1ccc2c(c1)CN(C1CCC(=O)NC1=O)C2=O (stereo not drawn) [Compound 211],< 100,< 100
CC1(N)CCN(c2cnc(Sc3cccc(NC(=O)CCCCCCN4CC5(CCN(c6ncc(C(=O)NCc7ccc8c(c7)CN(C7CCC(=O)NC7=O)C8=O)cc6C(F)(F)F)C5)C4)c3)cn2)CC1 (stereo not drawn) [Compound 170],< 100,100 to 1000
NC1(CO)CCN(c2cnc(Sc3cccc(NC(=O)CCCCCCN4CC5(CCN(c6ccc(C(=O)NCc7ccc8c(c7)CN(C7CCC(=O)NC7=O)C8=O)nc6)C5)C4)c3)cn2)CC1 (stereo not drawn) [Compound 190],100 to 1000,> 1000
CC1(N)CCN(c2cnc(Sc3cccc(NC(=O)CCCCCCOC4CC5CN(c6ccc(C(=O)NCc7ccc8c(c7)CN(C7CCC(=O)NC7=O)C8=O)nn6)CC5C4)c3)cn2)CC1 (stereo not drawn) [Compound 183],< 100,> 1000
CC1(N)CCN(c2cnc(Sc3cccc(NC(=O)CCCCCOc4ccc(C5CCC(C(=O)NCc6ccc7c(c6)CN(C6CCC(=O)NC6=O)C7=O)CC5)cc4)c3)cn2)CC1 (stereo not drawn) [Compound 192],< 100,> 1000
CC1(N)CCN(c2cnc(Sc3cccc(NC(=O)CCCCCCCCCCNc4ccc(C(=O)NCc5ccc6c(c5)CN(C5CCC(=O)NC5=O)C6=O)nn4)c3)cn2)CC1 (stereo not drawn) [Compound 185],< 100,100 to 1000
NC1CCN(c2cnc(Sc3cccc(NC(=O)CCCCN4CC5(CCN(c6ccc(C(=O)NCc7ccc8c(c7)CN(C7CCC(=O)NC7=O)C8=O)nn6)C5)C4)c3)cn2)CC1F (stereo not drawn) [Compound 140],> 1000,> 1000
CC1(N)CCN(c2cnc(Sc3cccc(NC(=O)CCCCCCN4CC5(CCN(C6CC(C(=O)NCc7ccc8c(c7)CN(C7CCC(=O)NC7=O)C8=O)C6)C5)C4)c3)cn2)CC1 (stereo not drawn) [Compound 160],100 to 1000,> 1000
"CC1(N)CCN(c2cnc(Sc3cccc(NC(=O)CCCCCCCCN4CCN(c5ncc(C(=O)NCc6ccc7c(c6)CN(C6CCC(=O)NC6=O)C7=O)cn5)CC4)c3)cn2)CC1 (stereo not drawn) [Compound 48, 2-(4-(9-((3-((5-(4-amino-4-methylpyridin-1-yl)pyrazin-2-yl)thio)phenyl)amino)-9-oxononyl)piperazin-1-yl)-N-((2-(2,6-dioxopiperidin-3-yl)-1-oxoisoindol-5-yl)methyl)pyrimidine-5-formamide]",< 100,< 100
CC1(N)CCN(c2cnc(Sc3cccc(NC(=O)/C=C/C(=O)N4CCN(CCCCCCCCC(=O)NCc5ccc6c(c5)CN(C5CCC(=O)NC5=O)C6=O)CC4)c3)cn2)CC1 (stereo not drawn) [Compound 55],< 100,> 1000
CC1(N)CCN(c2cnc(Sc3ccc(NC(=O)CCCCCCCCOC4CN(c5ncc(C(=O)NCc6ccc7c(c6)CN(C6CCC(=O)NC6=O)C7=O)cn5)C4)cc3)cn2)CC1 (stereo not drawn) [Compound 74],< 100,100 to 1000
CC1(N)CCN(c2cnc(Sc3cccc(NC(=O)CCCCCCCO[C@H]4CCN(c5ccc(C(=O)NCc6ccc7c(c6)CN(C6CCC(=O)NC6=O)C7=O)nn5)C4)c3)cn2)CC1 (stereo partly drawn) [Compound 102],< 100,< 100
NC1(CF)CCN(c2cnc(Sc3ccc(NC(=O)CCCCN4CC5(CCN(c6ncc(C(=O)NCc7ccc8c(c7)CN(C7CCC(=O)NC7=O)C8=O)cn6)C5)C4)cc3)cn2)CC1 (stereo not drawn) [Compound 129],> 1000,
C[C@@H]1OCC2(CCN(c3cnc(Sc4cccc(NC(=O)CCCCN5CC6(CCN(c7ccc(C(=O)NCc8ccc9c(c8)CN(C8CCC(=O)NC8=O)C9=O)nn7)C6)C5)c4)cn3)CC2)[C@@H]1N (stereo partly drawn) [Compound 109],< 100,
CC1(N)CCN(c2cnc(Sc3cccc(NC(=O)CCCCCCCO[C@@H]4CN(c5ccc(C(=O)NCc6ccc7c(c6)CN(C6CCC(=O)NC6=O)C7=O)nn5)CC4(F)F)c3)cn2)CC1 (stereo partly drawn) [Compound 178],< 100,< 100
CN(Cc1ccc2c(c1)CN(C1CCC(=O)NC1=O)C2=O)C(=O)c1cnc(N2CCC3(CN(CCCCCCC(=O)Nc4cccc(Sc5cnc(N6CCC(C)(N)CC6)cn5)c4)C3)C2)c(C(F)(F)F)c1 (stereo not drawn) [Compound 171],< 100,

# Continued, values first:
DC50 (SHP2 protein [1]) [nM],DC50 (SHP2 protein [2]) [nM],SMILES
< 100,100 to 1000,Cc1ncsc1-c1ccc([C@H](C)NC(=O)[C@@H]2C[C@@H](O)CN2C(=O)[C@@H](NC(=O)c2ccc(N3CCC4(CN(CCC(=O)Nc5cccc(Sc6cnc(N7CCC(C)(N)CC7)cn6)c5)C4)C3)nn2)C(C)(C)C)cc1 [Compound 98]
< 100,> 1000,O=C1CCC(N2Cc3cc(CNC(=O)c4ccc(N5CCC6(CN(CCCCCCC(=O)Nc7cccc(Sc8cnc(N9CCC%10(CCNC%10)CC9)cn8)c7)C6)C5)nn4)ccc3C2=O)C(=O)N1 (stereo not drawn) [Compound 112]
< 100,> 1000,CC1(N)CCN(c2cnc(Sc3cccc(NC(=O)CCCCCCCO[C@@H]4CCN(c5ncc(C(=O)NCc6ccc7c(c6)CN(C6CCC(=O)NC6=O)C7=O)cn5)C4)c3)cn2)CC1 (stereo partly drawn) [Compound 104]
< 100,< 100,COCC1(N)CCN(c2cnc(Sc3cccc(NC(=O)CCCCCCN4CC5(CCN(c6ccc(C(=O)NCc7ccc8c(c7)CN(C7CCC(=O)NC7=O)C8=O)nn6)C5)C4)c3)cn2)CC1 (stereo not drawn) [Compound 199]
< 100,> 1000,"CC1(N)CCN(c2cnc(Sc3cccc(NC(=O)CCCCCOc4ccc(C5CC5C(=O)NCc5ccc6c(c5)C(=O)N(C5CCC(=O)NC5=O)C6)cc4)c3)cn2)CC1 (stereo not drawn) [Compound 189, 2-(4-((6-((3-((5-(4-amino-4-methylpyridin-1-yl)pyrazin-2-yl)thio)phenyl)amino)-6-oxohexyl)oxy)phenyl)-N-((2-(2,6-dioxopiperidin-3-yl)-3-oxoisoindol-5-yl)methyl)cyclopropane-1-formamide]"
< 100,< 100,CC1(N)CCN(c2cnc(Sc3cccc(NC(=O)CCCCCOC4CC5(CCN(c6ccc(C(=O)NCc7ccc8c(c7)CN(C7CCC(=O)NC7=O)C8=O)nn6)C5)C4)c3)cn2)CC1 (stereo not drawn) [Compound 166]
< 100,> 1000,CC1(N)CCN(c2cnc(Sc3cccc(NC(=O)CCCCCOc4ccc(C5CCC(C(=O)NCc6ccc7c(c6)CN(C6CCC(=O)NC6=O)C7=O)CC5)cc4)c3)cn2)CC1 (stereo not drawn) [Compound 191]
< 100,> 1000,Cc1cc(N2CCC3(CN(CCCCCCC(=O)Nc4cccc(Sc5cnc(N6CCC(N)(CO)CC6)cn5)c4)C3)C2)cnc1C(=O)NCc1ccc2c(c1)CN(C1CCC(=O)NC1=O)C2=O (stereo not drawn) [Compound 208]
< 100,100 to 1000,Cc1ncsc1-c1ccc([C@H](C)NC(=O)[C@@H]2C[C@@H](O)CN2C(=O)[C@@H](NC(=O)c2ccc(N3CCC4(CN(CCCCCCCC(=O)Nc5cccc(Sc6cnc(N7CCC(C)(N)CC7)cn6)c5)C4)C3)nn2)C(C)(C)C)cc1 [Compound 105]
< 100,> 1000,CC1(N)CCN(c2cnc(Sc3cccc(NC(=O)CCCCCCCN4CC5(CCN(c6ccc(COc7cccc8c7CN(C7CCC(=O)NC7=O)C8=O)nn6)C5)C4)c3)cn2)CC1 (stereo not drawn) [Compound 107]
< 100,> 1000,CC1(N)CCN(c2cnc(Sc3cccc(NC(=O)CCCCCCN4CC5(CCN(c6ccc(C#Cc7ccc8c(c7)CN(C7CCC(=O)NC7=O)C8=O)nn6)C5)C4)c3)cn2)CC1 (stereo not drawn) [Compound 157]
